This is an account of results in patent US12344610B2, “APOL1 inhibitors and methods of use” (Maze Therapeutics, Inc., priority 2022, dated 2025).

Assay [1] relates to HEK293 cells overexpressing APOL1 G2. Description: APOL1 G2 HEK293 cell rescue assay (reversal of cell death caused by overexpression of APOL1). The assay is classed as cell-based. Conditions: geometric mean of at least 2 assay runs, † = single assay run. The method, then: Unless otherwise specified, EC50 values are reported as the geometric mean of at least 2 assay runs on separate days. Each run represents the average of a technical replicate, where each compound was assayed twice in the same plate. A superscript t symbol indicates a value from the average of a technical replicate from a single assay run, where each compound was assayed twice in the same plate. Compounds in Table 40 are referred to by the corresponding Compound Number in Table 1, which is also referred to in the synthetic examples. When one or more of the numbered compounds are identified by stereochemistry (for example, (R)- or (S)-), the specific stereoisomer for which data is provided in Table 40 may be identified by the elution order of such compound as described in the synthetic examples. Absolute stereochemistry of such compounds may be identified by methods known in the art. For Table 40 below, n/a represents “not available”.
Rescue EC50 values reported in Table 40 below represent the half-maximal effective concentration for reversal of cell death caused by overexpression of APOL1.

In assay [2] the test system is HEK293 clonal cell line overexpressing APOL1 G1. Description: APOL1 G1 HEK293 cell rescue assay (Example B3). The assay is classed as cell-based. Conditions: geometric mean of at least 2 runs, † = single run, ¥ = concentration at 50% rescue estimated (no sigmoidal curve). The protocol: Compounds were also assayed in a HEK293 clonal cell line overexpressing APOL1 G1 by a method similar to that shown in Example B2 above.
Unless otherwise specified, EC50 values are reported as the geometric mean of at least 2 assay runs on separate days. Each run represents the average of a technical replicate, where each compound was assayed twice in the same plate. A superscript † symbol indicates a value from the average of a technical replicate from a single assay run, where each compound was assayed twice in the same plate. A ¥ symbol represents compound concentration at 50% rescue estimated due to lack of sigmoidal curve preventing curve fitting. Compounds in Table 41 are referred to by the corresponding Compound Number in Table 1, which is also referred to in the synthetic examples. When one or more of the numbered compounds are identified by stereochemistry (for example, (R)- or (S)-), the specific stereoisomer for which data is provided in Table 41 may be identified by the elution order of such compound as described in the synthetic examples. Absolute stereochemistry of such compounds may be identified by methods known in the art. For Table 41 below, n/a represents “not available”.
Rescue EC50 values reported in Table 41 below represent the half-maximal effective concentration for reversal of cell death caused by overexpression of APOL1.

[3] abbreviates: Homo sapiens, HEK293, HEK293 overexpressing APOL1 G2.
[4] abbreviates: Homo sapiens, HEK293, HEK293 clonal line overexpressing APOL1 G1.

Where only a bound is given, the exact number is not on record here.

In general, EC50 refers to the concentration at which the effect is half-maximal. Turning to `O=C1CCc2cc(OCCN3CCC4(CC3)C(=O)Nc3ccc(C(F)F)cc34)cnc2N1C1CC(CO)C1` (single isomer, unassigned) [Compound 310, 5-(difluoromethyl)-1′-[2-({7-oxo-8-[(trans) or (cis)-3-(hydroxymethyl)cyclobutyl]-5,6,7,8-tetrahydro-1,8-naphthyridin-3-yl}oxy)ethyl]-1,2-dihydrospiro[indole-3,4′-piperidin]-2-one], the values for the EC50 in assay [1] (HEK293 overexpressing APOL1 G2) and in assay [2] (HEK293 clonal line overexpressing APOL1 G1) were 0.103 µM and 0.267 µM, respectively.

Regarding `C[C@]1(O)C[C@@H](N2C(=O)CCc3cc(OCCN4CCC5(CC4)C(=O)Nc4ccc(C#N)cc45)cc(C(F)(F)F)c32)C1` [Compound 354, 2-oxo-1′-[2-({2-oxo-1-[(cis)-3-hydroxy-3-methylcyclobutyl]-8-(trifluoromethyl)-1,2,3,4-tetrahydroquinolin-6-yl}oxy)ethyl]-1,2-dihydrospiro[indole-3,4′-piperidine]-5-carbonitrile], the EC50 in assay [1] (setting [3]) was 0.0146 µM; in assay [2] (setting [4]) it was 0.0401 µM.

`C[C@]1(O)C[C@@H](n2cnc3nc(OCCN4CCC5(CC4)C(=O)Nc4ccc(Cl)cc45)cc(C(F)(F)F)c32)C1` [Compound 471, 5-chloro-1′-[2-({1-[(cis)-3-hydroxy-3-methylcyclobutyl]-7-(trifluoromethyl)-1H-imidazo[4,5-b]pyridin-5-yl}oxy)ethyl]-1,2-dihydrospiro[indole-3,4′-piperidin]-2-one]: the EC50 in assay [1] (setting [3]) and in assay [2] (setting [4]) was above 3.3 µM each time.

In the case of `C[C@]1(O)C[C@@H](N2C(=O)CCc3cc(OCCN4CCC5(CC4)C(=O)Nc4ccc(Cl)cc45)cc(C(F)(F)F)c32)C1` [Compound 353, 5-chloro-1′-[2-({2-oxo-1-[(cis)-3-hydroxy-3-methylcyclobutyl]-8-(trifluoromethyl)-1,2,3,4-tetrahydroquinolin-6-yl}oxy)ethyl]-1,2-dihydrospiro[indole-3,4′-piperidin]-2-one], the EC50 in assay [1] (setting [3]) was 0.0123 µM; in assay [2] (setting [4]) it was 0.0345 µM.

Regarding `CS(=O)(=O)C1(c2ncc(OCCN3CCC4(CC3)C(=O)Nc3c(Cl)cc(Cl)cc34)cn2)CC1` [Compound 400, 5,7-dichloro-1′-(2-{[2-(1-methanesulfonylcyclopropyl)pyrimidin-5-yl]oxy}ethyl)-1,2-dihydrospiro[indole-3,4′-piperidin]-2-one], the EC50 is 0.224 µM in assay [1] (setting [3]) and 0.678 µM in assay [2] (setting [4]).

With `CC(C)(O)CN1C(=O)CCc2cc(OCCN3CCC4(CC3)C(=O)Nc3ccc(Cl)cc34)cnc21` [Compound 452, 5-chloro-1′-(2-{[8-(2-hydroxy-2-methylpropyl)-7-oxo-5,6,7,8-tetrahydro-1,8-naphthyridin-3-yl]oxy}ethyl)-1,2-dihydrospiro[indole-3,4′-piperidin]-2-one], the EC50 in assay [1] (setting [3]) was 0.0282 µM; in assay [2] (setting [4]) it was 0.0844 µM.

`C[C@]1(O)C[C@@H](n2c(=O)cc(C(F)F)c3cc(OCCN4CCC5(CC4)C(=O)Nc4ccc(C(F)F)cc45)cnc32)C1` [Compound 340, 5-(difluoromethyl)-1′-(2-{[5-(difluoromethyl)-7-oxo-8-[(cis)-3-hydroxy-3-methylcyclobutyl]-7,8-dihydro-1,8-naphthyridin-3-yl]oxy}ethyl)-1,2-dihydrospiro[indole-3,4′-piperidin]-2-one]: the EC50 in assay [1] (setting [3]) amounted to 0.0302 µM.

Consider `C[C@]1(O)C[C@@H](n2c(=O)cc(C(F)F)c3cc(OCCN4CCC5(CC4)C(=O)Nc4ccc(Cl)cc45)cnc32)C1` [Compound 339, 5-chloro-1′-(2-{[5-(difluoromethyl)-7-oxo-8-[(cis)-3-hydroxy-3-methylcyclobutyl]-7,8-dihydro-1,8-naphthyridin-3-yl]oxy}ethyl)-1,2-dihydrospiro[indole-3,4′-piperidin]-2-one], for which, in assay [1] (setting [3]), the EC50 stood at 0.0366 µM.

As for `N#Cc1ccc2c(c1)C1(CCN(CCOc3cnc(CCO)nc3)CC1)C(=O)N2` [Compound 332, 1′-(2-{[2-(2-hydroxyethyl)pyrimidin-5-yl]oxy}ethyl)-2-oxo-1,2-dihydrospiro[indole-3,4′-piperidine]-5-carbonitrile], the EC50 in assay [2] (setting [4]) was around 10 µM.
